For 31 molecules, EC50 results are on record in US11230526B1, “Cylcoalkenyl derivatives useful as agonists of the GPR120 and/or GPR40 receptors” (Janssen Pharmaceutica NV, priority 2018, dated 2022).

Experiment [1] addresses T1, Human GPR120 short form (Homo sapiens, UniProt Q5NUL3).
T1 construct: expressed in transfected cells
T1 sequence (Q5NUL3 1-361): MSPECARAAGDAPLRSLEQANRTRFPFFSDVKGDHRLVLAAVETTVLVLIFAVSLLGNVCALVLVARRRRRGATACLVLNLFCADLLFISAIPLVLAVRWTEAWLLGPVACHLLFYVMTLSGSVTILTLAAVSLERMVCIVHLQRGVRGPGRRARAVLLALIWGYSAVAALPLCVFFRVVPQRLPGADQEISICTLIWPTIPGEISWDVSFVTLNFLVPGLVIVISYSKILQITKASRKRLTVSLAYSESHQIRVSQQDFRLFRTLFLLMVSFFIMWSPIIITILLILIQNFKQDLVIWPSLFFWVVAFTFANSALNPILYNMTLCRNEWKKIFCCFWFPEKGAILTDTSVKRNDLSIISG
In words: Human GPR120 calcium flux assay, Procedure Calcium B (4200 cells/well). The experiment is classed as cell-based. Summed up:
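Agonist EC50 came from a four-parameter fit of RFU (Fmax−Fmin) read over 300 s on FLIPR. Cells were HEK293 stably transfected with human GPR120 (NM_001195755.1) at 4200 per well, serum-starved 1 h and loaded with Fluo-4 NW dye with probenecid before ligand addition.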
(In general: A change in cytosolic calcium serves as a functional read-out for many receptors and channels.)

Experiment [2] has as its target T2, human GPR40 (Homo sapiens, UniProt O14842).
T2 construct: expressed in transfected cells
As to the kind of experiment: GPR40 calcium flux assay, human GPR40. The note with it: HEK293 cells stably expressing GPR40; table does not say human or rat. In kind it is cell-based. An outline of the steps: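 Cells preincubated 1 h at 37° C. in HBSS, 20 mM HEPES, 0.1% BSA, then Fluo 8 calcium dye 30 min at 37° C. and 15 min at room temperature.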

T2 sequence (O14842 whole entry): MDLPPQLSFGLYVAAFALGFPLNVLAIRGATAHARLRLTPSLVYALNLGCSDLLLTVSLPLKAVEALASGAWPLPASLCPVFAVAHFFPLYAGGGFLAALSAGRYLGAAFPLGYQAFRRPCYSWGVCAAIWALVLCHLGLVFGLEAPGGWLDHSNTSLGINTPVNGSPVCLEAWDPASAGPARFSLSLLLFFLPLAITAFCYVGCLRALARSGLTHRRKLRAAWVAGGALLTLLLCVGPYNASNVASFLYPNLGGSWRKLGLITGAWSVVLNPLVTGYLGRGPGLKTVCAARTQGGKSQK

By EC50 is commonly meant the concentration needed to bring the measured effect to its halfway point. Consider `COc1ccc(C2=C(COc3ccc(CCC(=O)O)c(C(F)(F)F)c3)CCC2)cc1` [Compound 301, 3-[4-[[2-(4-methoxyphenyl)cyclopenten-1-yl]methoxy]-2-(trifluoromethyl)phenyl]Propanoic Acid], for which the EC50 in experiment [1] came to 1.53 µM; in experiment [2] it was 0.448 µM.

As for `Cc1cc(CCC(=O)O)cc(F)c1OCC1=C(c2ccc(F)cc2)CCC1` [Compound 227, 3-[3-fluoro-4-[[2-(4-fluorophenyl)cyclopenten-1-yl]methoxy]-5-methyl-phenyl]Propanoic Acid], the half-maximal effective concentration (EC50) in experiment [1] is 0.356 µM; in experiment [2], greater than 5 µM.

Regarding `O=C(O)CCc1ccc(OCC2=C(C3CCC3)CCC2)cc1C(F)(F)F` [Compound 399, 3-[4-[(2-cyclobutylcyclopenten-1-yl)methoxy]-2-(trifluoromethyl)phenyl]Propanoic Acid], the concentration for a half-maximal effect (EC50) in experiment [1] turned out to be 0.671 µM; in experiment [2], 0.015 µM.

Turning to `CCCCC1=C(COc2ccc(CCC(=O)O)c(C(F)(F)F)c2)CCCC1` [Compound 598, 3-[4-[(2-butylcyclohexen-1-yl)methoxy]-2-(trifluoromethyl)phenyl]Propanoic Acid], the EC50 worked out at 0.399 µM in experiment [1] and 0.177 µM in experiment [2].

For `Cc1cc(OCC2=C(Cc3ccc(Cl)cc3)CCC2)c(F)cc1CCC(=O)O` [Compound 360, 3-[4-[[2-[(4-chlorophenyl)methyl]cyclopenten-1-yl]methoxy]-5-fluoro-2-methyl-phenyl]Propanoic Acid], the EC50 in experiment [1] is greater than 5 µM; in experiment [2], 0.972 µM.

On to `O=C(O)CCc1ccc(OCC2=C(c3ccc(Br)cc3)CCC2)cc1C(F)(F)F` [Compound 269, 3-[4-[[2-(4-bromophenyl)cyclopenten-1-yl]methoxy]-2-(trifluoromethyl)phenyl]Propanoic Acid], for which the EC50 in experiment [1] came out at 2.24 µM; in experiment [2], 0.604 µM.

Turning to `O=C(O)CCc1ccc(OCC2=C(C3CCCC3)CCC(F)(F)C2)cc1Cl` [Compound 607, 3-[2-chloro-4-[(2-cyclopentyl-5,5-difluoro-cyclohexen-1-yl)methoxy]phenyl]Propanoic Acid], the EC50 in experiment [1] amounted to 0.148 µM; in experiment [2], 0.325 µM.

With `CC(O)c1cc(OCC2=C(C3CCCC3)CCC2)ccc1CCC(=O)O` (centres unmarked) [Compound 443, 3-[4-[(2-cyclopentylcyclopenten-1-yl)methoxy]-2-(1-hydroxyethyl)phenyl]Propanoic Acid], the EC50 is greater than 5 µM in experiment [1] and 1.58 µM in experiment [2].

For the molecule `COc1ccc(C2=C(COc3ccc(CCC(=O)O)c(C)c3C)CCC2)cn1` [Compound 220, 3-[4-[[2-(6-methoxy-3-pyridyl)cyclopenten-1-yl]methoxy]-2,3-dimethyl-phenyl]Propanoic Acid], the EC50 was 0.16 µM in experiment [1] and greater than 5 µM in experiment [2].

As to `O=C(O)CCc1ccc(OCC2=C(Cc3ccccc3F)CCC2)cc1C(F)(F)F` [Compound 404, 3-[4-[[2-[(2-fluorophenyl)methyl]cyclopenten-1-yl]methoxy]-2-(trifluoromethyl)phenyl]Propanoic Acid], the EC50 worked out at 1.91 µM in experiment [1] and 0.105 µM in experiment [2].

As to `Cc1cc(OCC2=C(c3ccc(Cl)cc3)CCC2C)c(F)cc1CCC(=O)O` (centres unmarked) [Compound 333, 3-[4-[[2-(4-chlorophenyl)-5-methyl-cyclopenten-1-yl]methoxy]-5-fluoro-2-methyl-phenyl]Propanoic Acid], the EC50 came to 0.427 µM in experiment [1] and 1.01 µM in experiment [2].

For the molecule `[2H]C([2H])([2H])c1ccc(C2=C(COc3cc(C)c(CCC(=O)O)cc3F)CCC2)cc1` [Compound 303-D, 3-[5-fluoro-2-methyl-4-[[2-[4-(trideuteriomethyl)phenyl]cyclopenten-1-yl]methoxy]phenyl]Propanoic Acid], the EC50 in experiment [1] came to 0.124 µM; in experiment [2], 2.37 µM.

In the case of `COc1cc(C)ccc1C1=C(COc2ccc(CCC(=O)O)cc2)CCC1` [Compound 255], the results for the EC50 in experiment [1] and in experiment [2] were greater than 5 µM and 1.3 µM, respectively.

Consider `Cc1c(CCC(=O)O)ccc(OCC2=C(c3ccc(Cl)cc3)CCC(F)(F)CC2)c1C` [Compound 616, 3-[4-[[2-(4-chlorophenyl)-5,5-difluoro-cyclohepten-1-yl]methoxy]-2,3-dimethyl-phenyl]Propanoic Acid], for which the EC50 in experiment [1] was determined as 0.166 µM; in experiment [2], 3.55 µM.

Consider `CCCCC1=C(COc2ccc(CCC(=O)O)cc2)CCC1` [Compound 365], for which the EC50 stood at 0.496 µM in experiment [1] and 0.991 µM in experiment [2].

Take `COC1CCC(c2ccc(C)cc2)=C(COc2ccc(CCC(=O)O)cc2)C1` (centres unmarked) [Compound 574, 3-[4-[[5-methoxy-2-(p-tolyl)cyclohexen-1-yl]methoxy]phenyl]Propanoic Acid]: the concentration for a half-maximal effect (EC50) is 2.13 µM in experiment [1] and 4.41 µM in experiment [2].

With `O=C(O)CCc1ccc(OCC2=C(c3cc(Cl)ccc3F)CCC2)cc1C(F)(F)F` [Compound 344, 3-[4-[[2-(5-chloro-2-fluoro-phenyl)cyclopenten-1-yl]methoxy]-2-(trifluoromethyl)phenyl]Propanoic Acid], the EC50 in experiment [1] worked out at 0.52 µM; in experiment [2], 0.137 µM.

As to `Cc1cc(OCC2=C(c3ccccc3)CCC2C)c(F)cc1CCC(=O)O` (centres unmarked) [Compound 338, 3-[5-fluoro-2-methyl-4-[(5-methyl-2-phenyl-cyclopenten-1-yl)methoxy]phenyl]Propanoic Acid], the figures for the EC50 in experiment [1] and in experiment [2] were 0.725 µM and 2.86 µM, respectively.

For `O=C(O)CCc1ccc(OCC2=C(C3CCC3)CCCC2)cc1C(F)(F)F` [Compound 599, 3-[4-[(2-cyclobutylcyclohexen-1-yl)methoxy]-2-(trifluoromethyl)phenyl]Propanoic Acid], the concentration for a half-maximal effect (EC50) amounted to 1.35 µM in experiment [1] and 0.098 µM in experiment [2].

In the case of `O=C(O)CCc1ccc(OCC2=C(c3ccc(Cl)cc3)CCC2)cc1` [Compound 107], the EC50 in experiment [1] and in experiment [2] was greater than 5 µM each time.

Consider `O=C(O)CCc1ccc(OCC2=C(C3CCCC3)CCC2)cc1C(F)(F)C(F)(F)F` [Compound 446, 3-[4-[(2-cyclopentylcyclopenten-1-yl)methoxy]-2-(1,1,2,2,2-pentafluoroethyl)phenyl]Propanoic Acid], for which the EC50 in experiment [1] was found to be 0.828 µM; in experiment [2] it was 0.458 µM.

Take `CCCC1=C(COc2ccc(CCC(=O)O)c(C(F)(F)F)c2)CCC1` [Compound 389, 3-[4-[(2-propylcyclopenten-1-yl)methoxy]-2-(trifluoromethyl)phenyl]Propanoic Acid]: the results for the EC50 in experiment [1] and in experiment [2] were 0.75 µM and 0.051 µM, respectively.

`Cc1cc(OCC2=C(c3ccccc3)C(C)CC2)c(F)cc1CCC(=O)O` (centres unmarked) [Compound 323, 3-[5-fluoro-2-methyl-4-[(3-methyl-2-phenyl-cyclopenten-1-yl)methoxy]phenyl]Propanoic Acid]: the EC50 worked out at 1.07 µM in experiment [1] and 2.23 µM in experiment [2].

Take `Cc1ccc(CC2=C(COc3ccc(CCC(=O)O)cc3)CCC2)cc1` [Compound 346, 3-[4-[[2-(p-tolylmethyl)cyclopenten-1-yl]methoxy]phenyl]Propanoic Acid]: the 50% effective concentration (EC50) stood at 1.3 µM in experiment [1] and 0.228 µM in experiment [2].

Regarding `Cc1cccc(C2=C(COc3ccc(CCC(=O)O)c(Cl)c3)CCC2)c1` [Compound 298, 3-[2-chloro-4-[[2-(m-tolyl)cyclopenten-1-yl]methoxy]phenyl]Propanoic Acid], the concentration giving a half-maximal response (EC50) came to 1.63 µM in experiment [1] and 1.59 µM in experiment [2].

As to `Cc1ccc(CC2=C(COc3ccc(CCC(=O)O)c(C(F)(F)F)c3)CCC2)cc1` [Compound 345, 3-[4-[[2-(p-tolylmethyl)cyclopenten-1-yl]methoxy]-2-(trifluoromethyl)phenyl]Propanoic Acid], the EC50 amounted to 3.02 µM in experiment [1] and 0.067 µM in experiment [2].

`O=C(O)CCc1ccc(OCC2=C(Cc3ccccc3)CCCC2)cc1` [Compound 581, 3-[4-[(2-benzylcyclohexen-1-yl)methoxy]phenyl]Propanoic Acid]: the 50% effective concentration (EC50) in experiment [1] came out at 2.11 µM; in experiment [2], 0.591 µM.

For `N#Cc1cc(OCC2=C(c3ccc(F)cc3)CC(F)(F)C2)ccc1CCC(=O)O` [Compound 207, 3-[2-cyano-4-[[4,4-difluoro-2-(4-fluorophenyl)cyclopenten-1-yl]methoxy]phenyl]Propanoic Acid], the EC50 in experiment [1] is 2.1 µM; in experiment [2], 1.2 µM.

`Cc1ccc(C2=C(COc3ccc(CCC(=O)O)c(Cl)c3)CC(F)(F)C2)cc1` [Compound 250, 3-[2-chloro-4-[[4,4-difluoro-2-(p-tolyl)cyclopenten-1-yl]methoxy]phenyl]Propanoic Acid]: the results for the EC50 in experiment [1] and in experiment [2] were 0.076 µM and 1.48 µM, respectively.

`O=C(O)CCc1ccc(OCC2=C(C3CC4CCC3C4)CCCC2)cc1C(F)(F)F` (centres unmarked) [Compound 592, 3-[4-[(2-norbornan-2-ylcyclohexen-1-yl)methoxy]-2-(trifluoromethyl)phenyl]Propanoic Acid]: the EC50 in experiment [1] is greater than 5 µM; in experiment [2], 1.55 µM.

`Cc1ccc(C2=C(COc3ccc(CCC(=O)O)c(C(F)(F)F)c3)CCC2)c(-c2ccccc2)c1` [Compound 291, 3-[4-[[2-(4-methyl-2-phenyl-phenyl)cyclopenten-1-yl]methoxy]-2-(trifluoromethyl)phenyl]Propanoic Acid]: the figures for the EC50 in experiment [1] and in experiment [2] were greater than 5 µM and 1.42 µM, respectively.
